Laboratory results reported in US20120316342A1, “THERAPEUTIC AGENT FOR HEPATITIS C” (priority 2010, published 2012).

What was measured:
[1] = tested on: NNC #2 (full-length replicon) cells; assay: Anti-HCV activity using full-length replicon cells (HCV genomic RNA, real-time RT-PCR); assay type: cell-based; settings: for anti-HCV activity (in words): FIGS. 3 to 6; for EC50: HCV genomic RNA level, 3 days
Method: (§1) The 70% confluent #50-1 (subgenomic replion) cells or NNC #2 (full-length replicon) cells (Ishii et al., J. Virol., 2006, vol. 80, pp. 4510-4520) were dispersed in a culture bottle with the aid of trypsin, and the resulting dispersion was resuspended in a high-glucose Dulbecco's modified Eagle medium (DMEM) containing 10% FCS and 1 mg/ml G418 (Sigma) (see FIGS. 1 and 2). The cell suspension adjusted at 5×10^4 cells/ml with the use thereof was added to wells of a 96-well culture plate at 100 μl/well (the final cell density in each well: […]), and culture was conducted at 37° C. Supernatants of culture media were removed from wells of the plate on the following day, 200 μl each of the solutions of test compounds appropriately diluted with a G418-free culture solution were added, and culture was further continued. Samples were prepared from cells in each well 3 days later with the use of the TaqMan® Gene Expression Cell-to-CT® (Applied Biosystems). Reverse transcription was carried out in accordance with the protocols for the ABI 7500 PCR systems (Applied Biosystems) at 37° C. for 60 minutes, 95° C. for 5 minutes, and retained at 4° C. Real-time PCR was carried out in accordance with the protocols for the ABI 7500 real-time PCR systems (Applied Biosystems) at 50° C. for 2 minutes, 95° C. for 10 minutes, 40 cycles at 95° C. for 15 seconds, and 60° C. for 1 minute.
(§2) In accordance with the method mentioned above, the level of the HCV genomic RNA and, as the internal standard, the level of mRNA of glyceraldehyde-3-phosphate dehydrogenase (GAPDH) (a house keeping gene of the host cells) were assayed, and a percentage (%) relative to the level of RNA of a control group to which the test compound was not administered was determined. The dose-response relationship of the test compound was analyzed based on the measured level of the HCV genomic RNA to determine EC50, and the dose-response relationship of the test compound was analyzed based on the measured level of GAPDH RNA to determine CC50. The term “EC50” and “CC50” used herein refers to 50% effective concentration (μM) and 50% cytotoxic concentration (μM), respectively.

[2] = tested on: #50-1 (subgenomic replion) cells; assay: Anti-HCV activity using subgenomic replicon cells (HCV genomic RNA, real-time RT-PCR); assay type: cell-based; settings: for EC50: HCV genomic RNA level, 3 days; for anti-HCV activity (in words): Table 1; for HCV genomic RNA level: concentration of 10 μM, relative to control group without test compound
Method: as §1, §2

[3] = tested on: NNC #2 (full-length replicon) cells; assay: Cytotoxicity in full-length replicon cells (GAPDH mRNA, real-time RT-PCR); assay type: cell-based; settings: GAPDH RNA level, 3 days
Method: (§3) The 70% confluent #50-1 (subgenomic replion) cells or NNC #2 (full-length replicon) cells (Ishii et al., J. Virol., 2006, vol. 80, pp. 4510-4520) were dispersed in a culture bottle with the aid of trypsin, and the resulting dispersion was resuspended in a high-glucose Dulbecco's modified Eagle medium (DMEM) containing 10% FCS and 1 mg/ml G418 (Sigma) (see FIGS. 1 and 2). The cell suspension adjusted at 5×10^4 cells/ml with the use thereof was added to wells of a 96-well culture plate at 100 μl/well (the final cell density in each well: […]), and culture was conducted at 37° C. […]
(§4) In accordance with the method mentioned above, the level of the HCV genomic RNA and, as the internal standard, the level of mRNA of glyceraldehyde-3-phosphate dehydrogenase (GAPDH) (a house keeping gene of the host cells) were assayed, and a percentage (%) relative to the level of RNA of a control group to which the test compound was not administered was determined. The dose-response relationship of the test compound was analyzed based on the measured level of the HCV genomic RNA to determine EC50, and the dose-response relationship of the test compound was analyzed based on the measured level of GAPDH RNA to determine CC50. […]

[4] = tested on: #50-1 (subgenomic replion) cells; assay: Cytotoxicity in subgenomic replicon cells (GAPDH mRNA, real-time RT-PCR); assay type: cell-based; settings: GAPDH RNA level, 3 days
Method: as §1, §2

[5] = tested on: Subgenomic HCV RNA replicon cells (LucNeo#2) having a luciferase gene; assay: Anti-HCV activity using replicon cells (luciferase assay); assay type: cell-based; settings: Hepatitis C virus, 72 h
Method: Subgenomic HCV RNA replicon cells (LucNeo#2, Goto et al., Biochem. Biophys. Res. Commun., 2006, vol. 343, pp. 879-884) having a luciferase gene were suspended in a Dulbecco's modified Eagle medium (DMEM) containing 10% FBS and 1 mg/ml G418 (Sigma). The cells were incubated for 24 hours and then cultured in G418-free fresh media each containing test compounds at various concentrations for 3 days. In order to perform luciferase assays, the cells were washed with PBS and treated with a lysate for 10 minutes with intermittent agitation. A cell lysate (25 μl) was transferred to a white microtiter plate. Luciferase assay reagents (100 μl, Promega, Tokyo) were added to each well and the luciferase activity was measured with a luminometer.
(§5) Based on the luciferase assay results, the HCV genomic RNA level was measured, and a percentage (%) relative to the level of RNA of a control group to which the test compound was not administered was determined. Based on the results of tetrazolium staining, cell survival rates (%) of the group to which the test compound had been administered and of a control group were determined. The dose-response relationship of the test compound was analyzed based on the results of quantitative luciferase assays to determine EC50(μM), and the dose-response relationship of the test compound was analyzed based on the results of tetrazolium staining to determine CC50.

[6] = Cytotoxicity (cell survival rate) by tetrazolium staining in luciferase replicon cells; assay type: cell-based; settings: human, subgenomic HCV RNA replicon cells (LucNeo#2), LucNeo#2 subgenomic replicon cells
Method: A tetrazolium staining solution (10 μl, Seikagaku Corporation, Tokyo) was added to each well in order to examine cytotoxicity (a cell survival rate). After the cells were incubated for 1 hour, the absorbance at the characteristic absorption wavelength (450 nm) was measured with the use of a microplate reader.
as §5

[7] = Cytotoxicity in subgenomic replicon cells (GAPDH mRNA, real-time RT-PCR); assay type: cell-based; settings: human, #50-1 (subgenomic HCV replicon) cells, GAPDH RNA level
Method: as §1, §2

[8] = Cytotoxicity in full-length replicon cells (GAPDH mRNA, real-time RT-PCR); assay type: cell-based; settings: human, NNC #2 (full-length HCV replicon) cells, GAPDH RNA level
Method: as §3, §4

HCV replicon cells = settings: inhibiting the replication of the HCV genome, Non-Patent Document 8; cited from earlier work

In the case of `O=c1c2ccccc2c2cc(C(O)(C(F)(F)F)C(F)(F)F)ccc2n1Cc1ccccc1` [AA-04, 2-(1′,1′,1′,3′,3′,3′-hexafluoro-2′-hydroxypropan-2′-yl)-5-benzylphenanthridin-6(5H)-one], the “anti-HCV activity (in words)” value [1] is reported as “high degree of anti-HCV activity”.
For `CCCCn1c(=O)c2ccccc2c2cc(C(O)(C(F)(F)F)C(F)(F)F)ccc21` [AA-24, 2-(1′,1′,1′,3′,3′,3′-hexafluoro-2′-hydroxypropan-2′-yl)-5-butyl-phenanthridin-6(5H)-one], the EC50 [2] was 4 µM, the CC50 [3] was 11.9 µM and the CC50 [4] was 20.5 µM. The “anti-HCV activity (in words)” value [1] was “high degree of anti-HCV activity” and the EC50 [1] was 2.8 µM.
With `CCCCCCn1c(=O)c2ccccc2c2cc(C(O)(C(F)(F)F)C(F)(F)F)ccc21` [AA-25, 2-(1′,1′,1′,3′,3′,3′-hexafluoro-2′-hydroxypropan-2′-yl)-5-hexylphenanthridin-6(5H)-one] the “anti-HCV activity (in words)” value [1] was “high degree of anti-HCV activity”.
With `O=c1c2ccccc2c2cc(C(O)(C(F)(F)F)C(F)(F)F)ccc2n1CC1CCCCC1` [AA-26, 2-(1′,1′,1′,3′,3′,3′-hexafluoro-2′-hydroxypropan-2′-yl)-5-cyclohexylmethyl-phenanthridin-6(5H)-one] the “anti-HCV activity (in words)” value [1] was “high degree of anti-HCV activity”.
For `CCCCn1c(=O)c2ccccc2c2c(OC)c(C(O)(C(F)(F)F)C(F)(F)F)ccc21` [KZ34, 5-butyl-2-(1′,1′,1′,3′,3′,3′-hexafluoro-2′-hydroxypropan-2-yl)-1-methoxy-phenanthridin-6(5H)-one], the EC50 [5] was 7.2 µM and the CC50 at 3 days [6] was 25.3 µM.
With `CCCCn1c(=O)c2ccccc2c2cc3c(cc21)C(C)(C)CCC3(C)C` [MN256, 6-butyl-8,9,10,11-tetrahydro-8,8,11,11-tetramethylbenzo[2,3-b]phenanthridin-5(6H)-one] the EC50 ([2]; Hepatitis C virus, 72 h) was 5 µM and the CC50 at 3 days [7] was 31.7 µM.
In the case of `CCCCn1c(=O)c2ccccc2c2ccc3ccccc3c21` [MN305, 5-butylbenzo[c]phenanthridin-6(5H)-one], the EC50 ([2]; Hepatitis C virus, 72 h) is reported as 19.5 µM and the CC50 [4] is reported as 24.3 µM.
In the case of `CCCCn1c(=O)c2c3ccccc3ccc2c2ccccc21` [MN306, 6-butylbenzo[i]phenanthridin-5(6H)-one], the EC50 ([2]; Hepatitis C virus, 72 h) is reported as 29.9 µM, the “anti-HCV activity (in words)” value [2] is reported as “very high degree of anti-HCV activity at non-cytotoxic concentrations” and the CC50 at 3 days [7] is reported as over 40 µM.
In the case of `CCCCn1c(=O)c2ccccc2c2c3ccccc3ccc21` [MN313-A, 6-butylbenzo[a]phenanthridin-5(6H)-one], the EC50 ([2]; Hepatitis C virus, 72 h) is reported as 29.1 µM, the “anti-HCV activity (in words)” value [2] is reported as “very high degree of anti-HCV activity at non-cytotoxic concentrations” and the CC50 [4] is reported as 44.5 µM.
With `CCCCn1c(=O)c2ccccc2c2cc3ccccc3cc21` [MN313-B, 6-butylbenzo[b]phenanthridin-5(6H)-one] the EC50 ([2]; Hepatitis C virus, 72 h) was 3.2 µM, the “anti-HCV activity (in words)” value [2] was “very high degree of anti-HCV activity at non-cytotoxic concentrations” and the CC50 at 3 days [7] was 6.3 µM.
Work on `CCCCn1c(=O)c2ccc3ccccc3c2c2ccccc21` [MN314-A, 5-butylbenzo[k]phenanthridin-6(5H)-one] yielded an EC50 ([2]; Hepatitis C virus, 72 h) of over 31.4 µM and a CC50 [4] of 31.4 µM.
With `CCCCn1c(=O)c2cc3ccccc3cc2c2ccccc21` [MN314-B, 5-butylbenzo[j]phenanthridin-6(5H)-one] the “anti-HCV activity (in words)” value [2] was “very high degree of anti-HCV activity at non-cytotoxic concentrations”, the CC50 at 3 days [7] was 33.5 µM and the CC50 [4] was over 40 µM.
With `CCCCn1c(=O)c2ccccc2c2c(C(C)C)cccc21` [MN315-A, 5-butyl-1-isopropylphenanthridin-6(5H)-one] the “HCV genomic RNA level” value [2] was 46.3%.
With `CCCCn1c(=O)c2ccccc2c2ccc(C(C)C)cc21` [MN315-B, 5-butyl-3-isopropylphenanthridin-6(5H)-one] the “HCV genomic RNA level” value [2] was 14.7%.
With `CCCCn1c(=O)c2ccccc2c2cc(C(C)(C)C)ccc21` [MN325, 5-butyl-2-tert-butylphenanthridin-6(5H)-one] the EC50 ([2]; Hepatitis C virus, 72 h) was 6.1 µM and the CC50 at 3 days [7] was 34.4 µM.
`CCCCn1c(=O)c2ccccc2c2cc(C(C)C)ccc21` [PN-iPr, 5-butyl-2-isopropylphenanthridin-6(5H)-one] gave an EC50 ([2]; Hepatitis C virus, 72 h) of 4 µM, a CC50 at 3 days [8] of 27.7 µM and a CC50 at 3 days [7] of 20.5 µM. The EC50 ([1]; Hepatitis C virus, NNC2, 72 h) was 16.4 µM.
In the case of `COc1cc(NC(=O)Nc2cccc(CNC(=O)O[C@H]3CCOC3)c2)ccc1-c1cnco1` [VX497], the IC50 (HCV replicon cells) is given as 500 nM.
